According to patent US9956187B2 (priority 2014, dated 2018):
Entries after “also recorded” stand apart in the source; their conditions may differ.

Assays:
human cloned SERT = target: T1, human cloned SERT (Homo sapiens, UniProt P31645); assay: Serotonin reuptake assay in HEK 293 cells; type: cell-based; details: mean±SE
T1 construct: expressed in transfected cells
Description: In brief, Human Embryonic Kidney 293 cells were plated in Poly-L-Lys (PLL) coated 384-well black clear bottom cell culture plates in DMEM+1% dFBS, at a density of 15,000 cells per well in a total volume of 40 μl. The cells were incubated for a minimum of 6 hours before use in the assays. The medium was removed and 20 μL of assay buffer (20 mM HEPES, 1×HBSS, pH 7.40) was added, followed by 5 μL of 5× drug solutions. The plate was incubated at 37° C. for 30 min. After the incubation, 25 μL of dye solution was added and fluorescence intensity was measured after […] at 37° C., using FlexStation II (bottom read mode, Excitation at 440 nm, Emission at 520 nm with 510 nm cut-off) from the Molecular Devices. […] The half maximal inhibitory concentration were determined and expressed as pIC50 (pIC50=−log (IC50)).

kappa opioid receptor = kappa opioid receptor (Homo sapiens, UniProt P41145); type: biochemical; design: purchased Millipore (Billerica, Mass.); host or cells: Chem-5 mammalian cell line
Sequence of kappa opioid receptor (P41145 whole entry): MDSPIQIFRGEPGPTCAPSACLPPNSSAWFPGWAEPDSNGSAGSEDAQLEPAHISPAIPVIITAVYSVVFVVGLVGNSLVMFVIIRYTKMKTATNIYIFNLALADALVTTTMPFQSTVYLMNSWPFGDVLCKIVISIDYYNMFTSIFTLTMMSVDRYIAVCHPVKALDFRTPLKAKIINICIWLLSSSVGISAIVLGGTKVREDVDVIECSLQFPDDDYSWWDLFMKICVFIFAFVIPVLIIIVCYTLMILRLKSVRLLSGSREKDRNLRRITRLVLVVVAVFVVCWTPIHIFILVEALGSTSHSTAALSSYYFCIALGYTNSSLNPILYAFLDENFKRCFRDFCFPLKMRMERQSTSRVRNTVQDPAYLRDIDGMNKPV
Description: Membrane preparations of recombinant human kappa opioid receptor expressed in the mammalian cell line Chem-5 were obtained from Millipore (Billerica, Mass.). The effects of specific kappa opioid receptor ligands on the activation of the recombinant receptor were investigated by measuring G protein activation in vitro.
The assay reports the initial rates of activation of heterotrimeric G proteins (Gαii1β1γ2) on an agonist-bound receptor by measuring the accumulation of [^35S]-GTPγS (non-hydrolyzable analog of GTP) bound to the activated Gαi1 subunit. […] The G protein activation assay was conducted as follows (final concentrations in 50 μL reaction mixture are given in parentheses): the membrane sample was diluted into ice-cold 10 mM 3-(N-morpholino)propanesulfonic acid (MOPS) buffer to reach a protein concentration of 40 ng/μL. 10 μL of the diluted dispersion were dispensed into pre-siliconized glass tubes and mixed with the ligand in MOPS buffer containing 0.1% (w/v) BSA. Upon addition of a mixture of Gαi1 (100 nM) and Gβ1γ2 (500 nM), the tubes were incubated on ice for 30 minutes. The reaction was started by addition of MOPS buffer pH=7.5 (50 mM), EDTA (1 mM), MgCl2 (3 mM), GDP (4 μM), BSA (0.3% w/v), NaCl (100 mM), DTT (1 mM), and [^35S]-GTPγS (5 nM, 1250 Ci/mmol) followed by rapid transfer of the tubes to a water bath at 30° C. The incubation continued for 45 minutes. The reaction was terminated by addition of 2 mL of ice-cold stop solution, TNMg (20 mM Tris-HCl pH=8.0, 100 mM NaCl, and 25 mM MgCl2). The reaction mixture was rapidly filtered through nitrocellulose filters (Millipore). Filters were washed four times with 2 mL each of cold TNMg buffer, dried, placed in scintillation vials filled with ScintiSafe Econo F scintillation liquid (Fisher, Waltham, Mass.), and the radioactivity counted. Duplicate samples corresponding to every ligand concentration point were counted.

Sigma 1 = Sigma 1 (Homo sapiens, UniProt Q99720); assay: Primary radioligand binding screen; design: expressed in transfected cells; details: primary binding, Sigma 1; dezocine 10 μM
Sequence of Sigma 1 (Q99720 whole entry): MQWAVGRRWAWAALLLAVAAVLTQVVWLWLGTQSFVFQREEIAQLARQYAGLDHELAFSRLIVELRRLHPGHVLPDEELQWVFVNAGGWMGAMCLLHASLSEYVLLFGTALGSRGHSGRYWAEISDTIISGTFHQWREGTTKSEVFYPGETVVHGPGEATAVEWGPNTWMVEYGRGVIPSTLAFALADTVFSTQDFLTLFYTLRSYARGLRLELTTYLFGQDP
Description: (§1) Evidence for interaction was based on the inhibition of the reference ligand-binding signal. […] Briefly, 50 μL aliquots of radioactive ligand (5 nM) were added to wells of a 96-well plate, which contained 25 μL of the reference or test ligands. We employed transfected cell lines expressing mainly human (unless otherwise specified) recombinant receptors, monoamine transporters, or ion channels for crude membrane preparation. Detailed information about our membrane preparation is well known in the art and can be obtained from publicly available protocol online. Crude membrane fractions containing the receptors were resuspended in standard binding buffer and 50 μL aliquots added to each well. The reactions were incubated at room temperature for 1.5 hours to allow for radioligand binding equilibration. Bound radioactivity was harvested by rapid filtration through a 0.3% polyethyleneimine-treated, 96-well filter mats using a 96-well Filtermate harvester. The dried filters were treated with melted scintillant and a Microbeta scintillation counter was utilized to measure the radioactivity retained on the filter.

[1] = target: T2, norepinephrine transporter (NET) (Homo sapiens, UniProt P23975); assay: Secondary radioligand binding assay (affinity); details: FIG. 10A
T2 construct: expressed in transfected cells
T2 sequence (P23975 whole entry): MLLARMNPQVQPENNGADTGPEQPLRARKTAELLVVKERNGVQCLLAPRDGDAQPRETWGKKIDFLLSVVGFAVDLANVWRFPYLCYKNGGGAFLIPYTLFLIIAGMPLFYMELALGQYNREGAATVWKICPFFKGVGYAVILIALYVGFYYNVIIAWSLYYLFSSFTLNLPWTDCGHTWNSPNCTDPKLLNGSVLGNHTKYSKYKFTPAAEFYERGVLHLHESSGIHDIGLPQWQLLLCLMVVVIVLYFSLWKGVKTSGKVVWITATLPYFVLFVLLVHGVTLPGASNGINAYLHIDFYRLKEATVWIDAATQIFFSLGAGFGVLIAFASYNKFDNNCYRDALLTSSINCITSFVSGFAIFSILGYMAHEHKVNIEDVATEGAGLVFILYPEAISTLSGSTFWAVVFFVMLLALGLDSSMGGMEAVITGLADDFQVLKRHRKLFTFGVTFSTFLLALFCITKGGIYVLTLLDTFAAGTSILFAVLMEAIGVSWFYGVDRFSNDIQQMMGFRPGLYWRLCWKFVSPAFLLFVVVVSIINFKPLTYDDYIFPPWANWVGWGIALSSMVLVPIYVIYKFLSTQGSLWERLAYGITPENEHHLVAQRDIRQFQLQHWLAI
Description: The secondary binding assay was performed only when the inhibition in the primary screen was over 50%. A secondary binding assay was utilized to determine the binding affinity for the identified receptor.
50 μL of a crude membrane fraction of cells expressing the respective receptors were applied to each well. Reaction incubation, harvesting and radioactivity measurement from the primary assay were repeated. Affinity is expressed as pKi (−log Ki).

Alpha1B = target: T3, Alpha1B (Homo sapiens, UniProt P35368); assay: Primary radioligand binding screen; details: primary binding, Alpha1B; dezocine 10 μM
T3 construct: expressed in transfected cells
Description: as §1

5-HT2C = target: T4, 5-HT2C (Homo sapiens, UniProt P28335); assay: Primary radioligand binding screen; details: primary binding, 5-HT2C; dezocine 10 μM
T4 construct: expressed in transfected cells
T4 sequence (P28335 33-458): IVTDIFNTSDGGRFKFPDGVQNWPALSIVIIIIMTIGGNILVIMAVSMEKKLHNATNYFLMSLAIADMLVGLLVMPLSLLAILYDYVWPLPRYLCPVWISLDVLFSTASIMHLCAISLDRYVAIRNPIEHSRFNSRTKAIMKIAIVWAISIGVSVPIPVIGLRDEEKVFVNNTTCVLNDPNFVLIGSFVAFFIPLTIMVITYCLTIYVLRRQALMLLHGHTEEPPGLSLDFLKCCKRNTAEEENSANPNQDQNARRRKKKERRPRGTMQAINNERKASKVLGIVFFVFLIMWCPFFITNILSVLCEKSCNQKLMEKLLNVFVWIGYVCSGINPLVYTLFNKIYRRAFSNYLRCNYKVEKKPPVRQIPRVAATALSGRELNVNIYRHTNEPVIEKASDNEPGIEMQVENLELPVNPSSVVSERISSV
Description: as §1

H2 = target: T5, H2 (Homo sapiens, UniProt P25021); assay: Primary radioligand binding screen; details: primary binding, H2; dezocine 10 μM
T5 construct: expressed in transfected cells
T5 sequence (P25021 whole entry): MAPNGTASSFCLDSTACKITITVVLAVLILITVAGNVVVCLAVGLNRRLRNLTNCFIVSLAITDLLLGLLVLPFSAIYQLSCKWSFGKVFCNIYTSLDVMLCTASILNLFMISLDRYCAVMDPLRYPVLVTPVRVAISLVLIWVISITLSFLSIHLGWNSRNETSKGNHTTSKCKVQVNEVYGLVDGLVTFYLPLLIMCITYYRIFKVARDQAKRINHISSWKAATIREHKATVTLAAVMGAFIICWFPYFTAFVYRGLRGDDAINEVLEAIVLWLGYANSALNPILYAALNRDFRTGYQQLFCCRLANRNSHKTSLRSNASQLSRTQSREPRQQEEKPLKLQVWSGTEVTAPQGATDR
Description: as §1

5-HT6 = target: T6, 5-HT6 (Homo sapiens, UniProt P50406); assay: Primary radioligand binding screen; details: primary binding, 5-HT6; dezocine 10 μM
T6 construct: expressed in transfected cells
Description: as §1

Alpha2C = target: T7, Alpha2C (Homo sapiens, UniProt P18825); assay: Primary radioligand binding screen; details: primary binding, Alpha2C; dezocine 10 μM
T7 construct: expressed in transfected cells
Description: as §1

D1 = target: T8, D1 (Homo sapiens, UniProt P21728); assay: Primary radioligand binding screen; details: primary binding, D1; dezocine 10 μM
T8 construct: expressed in transfected cells
T8 sequence (P21728 whole entry): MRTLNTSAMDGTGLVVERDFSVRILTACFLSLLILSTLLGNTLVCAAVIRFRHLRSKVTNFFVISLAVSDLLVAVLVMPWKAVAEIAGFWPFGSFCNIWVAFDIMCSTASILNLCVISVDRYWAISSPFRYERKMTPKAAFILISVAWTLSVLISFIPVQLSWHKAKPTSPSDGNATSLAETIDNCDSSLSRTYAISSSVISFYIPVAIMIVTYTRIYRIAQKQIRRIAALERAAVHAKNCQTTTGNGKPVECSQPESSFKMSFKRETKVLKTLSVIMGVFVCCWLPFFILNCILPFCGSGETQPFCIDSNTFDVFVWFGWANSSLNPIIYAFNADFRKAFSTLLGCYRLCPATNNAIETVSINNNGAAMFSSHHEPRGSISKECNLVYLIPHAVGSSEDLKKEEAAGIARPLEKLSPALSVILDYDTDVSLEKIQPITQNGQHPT
Description: as §1

5-HT7 = target: T9, 5-HT7 (Homo sapiens, UniProt P34969); assay: Primary radioligand binding screen; details: primary binding, 5-HT7; dezocine 10 μM
T9 construct: expressed in transfected cells
Description: as §1

D4 = target: T10, D4 (Homo sapiens, UniProt P21917); assay: Primary radioligand binding screen; details: primary binding, D4; dezocine 10 μM
T10 construct: expressed in transfected cells
Description: as §1

5-HT1A = target: T11, 5-HT1A (Homo sapiens, UniProt P08908); assay: Primary radioligand binding screen; details: primary binding, 5-HT1A; dezocine 10 μM
T11 construct: expressed in transfected cells
T11 sequence (P08908 whole entry): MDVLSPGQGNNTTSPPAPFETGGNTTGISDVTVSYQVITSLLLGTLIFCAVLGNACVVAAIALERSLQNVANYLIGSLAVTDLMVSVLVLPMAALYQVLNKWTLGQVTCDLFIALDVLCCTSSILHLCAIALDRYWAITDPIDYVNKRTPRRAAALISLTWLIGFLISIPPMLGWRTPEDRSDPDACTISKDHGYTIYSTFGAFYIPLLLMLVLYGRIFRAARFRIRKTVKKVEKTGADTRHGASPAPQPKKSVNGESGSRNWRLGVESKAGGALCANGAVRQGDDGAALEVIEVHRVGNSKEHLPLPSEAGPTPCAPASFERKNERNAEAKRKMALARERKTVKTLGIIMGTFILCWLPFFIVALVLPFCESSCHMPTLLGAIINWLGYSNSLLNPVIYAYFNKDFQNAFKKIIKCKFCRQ
Description: as §1

5-HT1B = target: T12, 5-HT1B (Homo sapiens, UniProt P28222); assay: Primary radioligand binding screen; details: primary binding, 5-HT1B; dezocine 10 μM
T12 construct: expressed in transfected cells
T12 sequence (P28222 whole entry): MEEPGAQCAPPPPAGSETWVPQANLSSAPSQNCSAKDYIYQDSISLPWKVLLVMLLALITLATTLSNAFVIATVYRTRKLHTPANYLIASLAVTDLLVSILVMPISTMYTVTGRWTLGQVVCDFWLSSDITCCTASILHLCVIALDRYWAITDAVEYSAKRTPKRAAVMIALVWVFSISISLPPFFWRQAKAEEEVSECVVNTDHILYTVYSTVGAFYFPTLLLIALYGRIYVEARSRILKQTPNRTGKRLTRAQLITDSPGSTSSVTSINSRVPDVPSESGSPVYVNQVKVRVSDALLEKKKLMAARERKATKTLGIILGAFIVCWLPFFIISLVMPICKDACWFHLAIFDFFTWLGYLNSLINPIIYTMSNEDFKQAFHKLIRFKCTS
Description: as §1

D2 = target: T13, D2 (Homo sapiens, UniProt P14416); assay: Primary radioligand binding screen; details: primary binding, D2; dezocine 10 μM
T13 construct: expressed in transfected cells
Description: as §1

D5 = target: T14, D5 (Homo sapiens, UniProt P21918); assay: Primary radioligand binding screen; details: primary binding, D5; dezocine 10 μM
T14 construct: expressed in transfected cells
Description: as §1

5-HT1D = target: T15, 5-HT1D (Homo sapiens, UniProt P28221); assay: Primary radioligand binding screen; details: primary binding, 5-HT1D; dezocine 10 μM
T15 construct: expressed in transfected cells
T15 sequence (P28221 whole entry): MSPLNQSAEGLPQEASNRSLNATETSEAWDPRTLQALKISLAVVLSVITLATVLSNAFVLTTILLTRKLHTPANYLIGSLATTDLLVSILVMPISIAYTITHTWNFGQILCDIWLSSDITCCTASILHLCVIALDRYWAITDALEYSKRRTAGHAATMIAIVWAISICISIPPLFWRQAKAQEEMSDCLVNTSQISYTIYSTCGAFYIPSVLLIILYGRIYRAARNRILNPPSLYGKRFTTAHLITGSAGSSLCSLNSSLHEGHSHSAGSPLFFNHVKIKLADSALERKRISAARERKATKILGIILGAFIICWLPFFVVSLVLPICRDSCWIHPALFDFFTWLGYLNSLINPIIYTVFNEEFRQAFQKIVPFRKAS
Description: as §1

D3 = target: T16, D3 (Homo sapiens, UniProt P35462); assay: Primary radioligand binding screen; details: primary binding, D3; dezocine 10 μM
T16 construct: expressed in transfected cells
T16 sequence (P35462 whole entry): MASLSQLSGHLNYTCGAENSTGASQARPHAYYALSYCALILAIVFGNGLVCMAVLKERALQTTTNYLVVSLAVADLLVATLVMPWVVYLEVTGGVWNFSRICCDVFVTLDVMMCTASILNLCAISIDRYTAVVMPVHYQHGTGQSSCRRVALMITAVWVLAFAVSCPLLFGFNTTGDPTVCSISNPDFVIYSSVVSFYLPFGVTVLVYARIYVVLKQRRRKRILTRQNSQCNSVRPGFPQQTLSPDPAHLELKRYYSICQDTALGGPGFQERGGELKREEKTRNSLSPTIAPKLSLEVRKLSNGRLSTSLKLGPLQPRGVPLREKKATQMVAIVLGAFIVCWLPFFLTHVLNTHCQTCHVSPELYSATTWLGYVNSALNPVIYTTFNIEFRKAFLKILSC
Description: as §1

Beta2 = target: T17, Beta2 (Homo sapiens, UniProt P07550); assay: Primary radioligand binding screen; details: primary binding, Beta2; dezocine 10 μM
T17 construct: expressed in transfected cells
Description: as §1

M5 = target: T18, M5 (Homo sapiens, UniProt P08912); assay: Primary radioligand binding screen; details: primary binding, M5; dezocine 10 μM
T18 construct: expressed in transfected cells
Description: as §1

5-HT3 = target: T19, 5-HT3 (Homo sapiens, UniProt P46098); assay: Primary radioligand binding screen; details: primary binding, 5-HT3; dezocine 10 μM
T19 construct: expressed in transfected cells
T19 sequence (P46098 24-478): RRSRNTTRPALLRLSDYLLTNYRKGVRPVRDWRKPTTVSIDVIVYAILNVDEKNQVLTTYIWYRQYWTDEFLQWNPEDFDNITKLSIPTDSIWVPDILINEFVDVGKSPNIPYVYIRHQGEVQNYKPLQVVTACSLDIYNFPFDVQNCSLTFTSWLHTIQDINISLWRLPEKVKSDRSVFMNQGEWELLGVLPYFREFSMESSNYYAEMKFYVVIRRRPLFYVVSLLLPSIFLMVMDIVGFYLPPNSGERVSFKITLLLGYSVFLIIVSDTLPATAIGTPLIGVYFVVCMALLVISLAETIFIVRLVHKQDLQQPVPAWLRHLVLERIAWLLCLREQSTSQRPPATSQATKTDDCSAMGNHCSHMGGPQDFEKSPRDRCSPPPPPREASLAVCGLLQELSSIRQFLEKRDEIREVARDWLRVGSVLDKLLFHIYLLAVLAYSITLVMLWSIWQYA
Description: as §1

Alpha2A = target: T20, Alpha2A (Homo sapiens, UniProt P08913); assay: Primary radioligand binding screen; details: primary binding, Alpha2A; dezocine 10 μM
T20 construct: expressed in transfected cells
Description: as §1

5-HT2B = target: T21, 5-HT2B (Homo sapiens, UniProt P41595); assay: Primary radioligand binding screen; details: primary binding, 5-HT2B; dezocine 10 μM
T21 construct: expressed in transfected cells
Description: as §1

5-HT1E = target: T22, 5-HT1E (Homo sapiens, UniProt P28566); assay: Primary radioligand binding screen; details: primary binding, 5-HT1E; dezocine 10 μM
T22 construct: expressed in transfected cells
Description: as §1

NET = target: T23, NET (Homo sapiens, UniProt P23975); assay: Primary radioligand binding screen; details: primary binding, NET; dezocine 10 μM
T23 construct: expressed in transfected cells
T23 sequence (P23975 whole entry): as the sequence (P23975 whole entry) above
Description: as §1

Beta3 = target: T24, Beta3 (Homo sapiens, UniProt P13945); assay: Primary radioligand binding screen; details: primary binding, Beta3; dezocine 10 μM
T24 construct: expressed in transfected cells
Description: as §1

Alpha1A = target: T25, Alpha1A (Homo sapiens, UniProt P35348); assay: Primary radioligand binding screen; details: primary binding, Alpha1A; dezocine 10 μM
T25 construct: expressed in transfected cells
Description: as §1

H3 = target: T26, H3 (Homo sapiens, UniProt Q9Y5N1); assay: Primary radioligand binding screen; details: primary binding, H3; dezocine 10 μM
T26 construct: expressed in transfected cells
Description: as §1

5-hT5A = target: T27, 5-hT5A (Homo sapiens, UniProt P47898); assay: Primary radioligand binding screen; details: primary binding, 5-hT5A; dezocine 10 μM
T27 construct: expressed in transfected cells
T27 sequence (P47898 whole entry): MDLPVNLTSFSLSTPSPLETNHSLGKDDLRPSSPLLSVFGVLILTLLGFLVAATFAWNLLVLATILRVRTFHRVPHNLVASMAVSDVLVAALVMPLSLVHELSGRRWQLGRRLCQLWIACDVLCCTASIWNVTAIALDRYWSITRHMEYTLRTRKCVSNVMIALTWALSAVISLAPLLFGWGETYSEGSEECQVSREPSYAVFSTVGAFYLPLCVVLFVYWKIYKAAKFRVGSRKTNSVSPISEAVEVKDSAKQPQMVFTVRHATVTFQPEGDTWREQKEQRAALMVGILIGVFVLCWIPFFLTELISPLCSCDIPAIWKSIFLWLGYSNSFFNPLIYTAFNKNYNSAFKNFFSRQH
Description: as §1

CNCCC(Oc1ccccc1OC)c1ccccc1 (stereo not drawn) [nisoxetine]
pIC50 of SERT (serotonin reuptake) (human cloned SERT): 5.99±0.07

Oc1ccc2c3c1O[C@H]1c4[nH]c5c(c4C[C@@]4(O)[C@@H](C2)N(CC2CC2)CC[C@]314)C[C@@]1(O)[C@H]2Cc3ccc(O)c4c3[C@@]1(CCN2CC1CC1)[C@H]5O4 [nor-binaltorphimine]
G protein activation in the presence of kappa receptor (kappa opioid receptor): inverse kappa agonist; also recorded: did not induce G protein activation

C=CCN1CC[C@]23c4c5ccc(O)c4O[C@H]2C(=O)CC[C@@]3(O)[C@H]1C5 [Naloxone]
% inhibition (Sigma 1): 9.6%
interaction (binding activity) with NET [1]: No significant binding activity
% inhibition (Alpha1B): −2%
% inhibition (5-HT2C): 21.1%
% inhibition (H2): 57.4%
% inhibition (5-HT6): 27.6%
% inhibition (Alpha2C): 22.7%
% inhibition (D1): 5.5%
% inhibition (5-HT7): 60.3%
% inhibition (D4): −5.8%
% inhibition (5-HT1A): 5.8%
% inhibition (5-HT1B): −1%
% inhibition (D2): −0.8%
% inhibition (D5): 2.1%
% inhibition (5-HT1D): −1.6%
% inhibition (D3): 1.9%
% inhibition (Beta2): −2.6%
% inhibition (M5): 32.1%
% inhibition (5-HT3): 0%
% inhibition (Alpha2A): 12.9%
% inhibition (5-HT2B): 49.6%
% inhibition (5-HT1E): −5.7%
% inhibition (NET): 43.8%
% inhibition (Beta3): −3.1%
% inhibition (Alpha1A): 4%
% inhibition (H3): 8.9%
% inhibition (5-hT5A): 28.9%

CN1CC[C@]23c4c5ccc(O)c4O[C@H]2[C@@H](O)C=C[C@H]3[C@H]1C5 [Morphine]
interaction (binding activity) with NET [1]: No significant binding activity
